# Patent publication USRE48461E1, “Modulation of androgen receptor expression” (Ionis Pharmaceuticals, Inc., priority 2012, dated 2021)
# Oligonucleotides are written 5' to 3', each unit as a sugar letter and its base; * is a phosphorothioate linkage, no mark a phosphodiester; rarer units and linkages stand in square brackets, end groups in braces. Plain capitals give the bases only. k = constrained ethyl (cEt); [5mC] = 5-methylcytosine; d = 2'-deoxy (DNA)
# Columns and labels:
# AR mRNA [1] = assay: Antisense inhibition of human AR in HuVEC cells, single concentration (electroporation, qRT-PCR RTS3559); format: cell-based
# Procedure, shortened: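 AR mRNA levels were measured with human primer-probe set RTS3559 and adjusted for total RNA (RIBOGREEN). Cells were HuVEC, with each antisense oligonucleotide delivered by electroporation at one concentration.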
# AR mRNA [2] = assay: Dose-dependent antisense inhibition of human AR in HuVEC cells (electroporation, qRT-PCR RTS3559, IC50); format: cell-based
# Procedure, shortened: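 HuVEC cells dosed with antisense oligonucleotides by electroporation and treated approximately 16 hours. AR mRNA quantified by real-time qPCR with primer probe set RTS3559 and normalised to total RNA by RIBOGREEN; IC50 from dose-response.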
substance,measurement,setting,value
549372 (kA*kA*kG*dT*dT*dG*dT*dA*dG*dT*dA*dG*dT*k[5mC]*kG*k[5mC]) [compound 549372],% inhibition,"AR mRNA [1]; 500 nM ASO, electroporation, ~24 h, Table 1",92%
same,% inhibition,"AR mRNA [1]; 500 nM ASO, ~24 h, Table 16",47%
same,% inhibition,"AR mRNA [1]; 500 nM ASO, ~24 h, Table 17",40%
same,% inhibition,"AR mRNA [1]; 500 nM ASO, ~24 h, Table 18",26%
same,% inhibition,"AR mRNA [1]; 1,000 nM ASO, ~24 h, Table 13",64%
same,% inhibition,"AR mRNA [1]; 1,000 nM ASO, ~24 h, Table 26",58%
same,% inhibition,"AR mRNA [1]; Table 19, 500 nM oligonucleotide, electroporation, approximately 24 hours, relative to untreated control",39%
same,% inhibition,"AR mRNA [1]; Table 20, 500 nM oligonucleotide, electroporation, approximately 24 hours, relative to untreated control",23%
same,% inhibition,"AR mRNA [1]; Table 21, 500 nM oligonucleotide, electroporation, approximately 24 hours, relative to untreated control",37%
same,% inhibition,"AR mRNA [1]; Table 22, 500 nM oligonucleotide, electroporation, approximately 24 hours, relative to untreated control",46%
same,% inhibition,"AR mRNA [1]; Table 23, 500 nM oligonucleotide, electroporation, approximately 24 hours, relative to untreated control",25%
same,% inhibition,"AR mRNA [1]; Table 24, 1,000 nM oligonucleotide, electroporation, approximately 24 hours, relative to untreated control",63%
same,% inhibition,"AR mRNA [1]; Table 25, 1,000 nM oligonucleotide, electroporation, approximately 24 hours, relative to untreated control",59%
same,% inhibition,"AR mRNA [1]; Table 27, 1,000 nM oligonucleotide, electroporation, approximately 24 hours, relative to untreated control",70%
same,% inhibition,"AR mRNA [1]; Table 28, 1,000 nM oligonucleotide, electroporation, approximately 24 hours, relative to untreated control",54%
same,percent inhibition of AR,"AR mRNA [2]; 31.25 nM, HuVEC, ~16 h, Table 14",2%
same,percent inhibition of AR,"AR mRNA [2]; 46.9 nM, HuVEC, ~16 h, Table 15",9%
same,percent inhibition of AR,"AR mRNA [2]; 55.6 nM, HuVEC, ~16 h, Table 3",22%
same,percent inhibition of AR,"AR mRNA [2]; 62.5 nM, HuVEC, ~16 h, Table 14",17%
same,percent inhibition of AR,"AR mRNA [2]; 125.0 nM, HuVEC, ~16 h, Table 14",31%
same,percent inhibition of AR,"AR mRNA [2]; 166.7 nM, HuVEC, ~16 h, Table 3",51%
same,percent inhibition of AR,"AR mRNA [2]; 187.5 nM, HuVEC, ~16 h, Table 15",41%
same,percent inhibition of AR,"AR mRNA [2]; 500.0 nM, HuVEC, ~16 h, Table 3",85%
same,percent inhibition of AR,"AR mRNA [2]; 500.0 nM, HuVEC, ~16 h, Table 14",61%
same,percent inhibition of AR,"AR mRNA [2]; 750.0 nM, HuVEC, ~16 h, Table 15",66%
same,percent inhibition of AR,"AR mRNA [2]; 1000.0 nM, HuVEC, ~16 h, Table 14",80%
same,percent inhibition of AR,"AR mRNA [2]; 1500.0 nM, HuVEC, ~16 h, Table 3",89%
same,percent inhibition of AR,"AR mRNA [2]; 3000.0 nM, HuVEC, ~16 h, Table 15",87%
same,IC50,"AR mRNA [2]; HuVEC cells, electroporation",290 nM
same,inhibition of AR mRNA at 46.9 nM,"AR mRNA [2]; HuVEC cells, electroporation, 46.9 nM ASO",9%
same,inhibition of AR mRNA at 187.5 nM,"AR mRNA [2]; HuVEC cells, electroporation, 187.5 nM ASO",41%
same,inhibition of AR mRNA at 750.0 nM,"AR mRNA [2]; HuVEC cells, electroporation, 750.0 nM ASO",66%
same,inhibition of AR mRNA at 3000.0 nM,"AR mRNA [2]; HuVEC cells, electroporation, 3000.0 nM ASO",87%
same,IC50,"AR mRNA [2]; HuVEC, ~16 h, Table 3",150 nM
same,IC50,"AR mRNA [2]; HuVEC, ~16 h, Table 14",271 nM
same,IC50,"AR mRNA [2]; HuVEC, ~16 h, Table 15",290 nM
same,"percent inhibition of AR, 46.9 nM","AR mRNA [2]; Table 29, 46.9 nM, HuVEC, electroporation, approximately 16 hours",7%
same,"percent inhibition of AR, 187.5 nM","AR mRNA [2]; Table 29, 187.5 nM, HuVEC, electroporation, approximately 16 hours",41%
same,"percent inhibition of AR, 750.0 nM","AR mRNA [2]; Table 29, 750.0 nM, HuVEC, electroporation, approximately 16 hours",70%
same,"percent inhibition of AR, 3000.0 nM","AR mRNA [2]; Table 29, 3000.0 nM, HuVEC, electroporation, approximately 16 hours",91%
same,IC50,"AR mRNA [2]; Table 29, HuVEC, electroporation, approximately 16 hours",320 nM
same,"percent inhibition of AR, 46.9 nM","AR mRNA [2]; Table 30, 46.9 nM, HuVEC, electroporation, approximately 16 hours",13%
same,"percent inhibition of AR, 187.5 nM","AR mRNA [2]; Table 30, 187.5 nM, HuVEC, electroporation, approximately 16 hours",29%
same,"percent inhibition of AR, 750.0 nM","AR mRNA [2]; Table 30, 750.0 nM, HuVEC, electroporation, approximately 16 hours",69%
same,"percent inhibition of AR, 3000.0 nM","AR mRNA [2]; Table 30, 3000.0 nM, HuVEC, electroporation, approximately 16 hours",90%
same,IC50,"AR mRNA [2]; Table 30, HuVEC, electroporation, approximately 16 hours",370 nM
same,"percent inhibition of AR, 46.9 nM","AR mRNA [2]; Table 31, 46.9 nM, HuVEC, electroporation, approximately 16 hours",5%
same,"percent inhibition of AR, 187.5 nM","AR mRNA [2]; Table 31, 187.5 nM, HuVEC, electroporation, approximately 16 hours",36%
same,"percent inhibition of AR, 750.0 nM","AR mRNA [2]; Table 31, 750.0 nM, HuVEC, electroporation, approximately 16 hours",69%
same,"percent inhibition of AR, 3000.0 nM","AR mRNA [2]; Table 31, 3000.0 nM, HuVEC, electroporation, approximately 16 hours",88%
same,IC50,"AR mRNA [2]; Table 31, HuVEC, electroporation, approximately 16 hours",360 nM
same,"percent inhibition of AR, 46.9 nM","AR mRNA [2]; Table 32, 46.9 nM, HuVEC, electroporation, approximately 16 hours",15%
same,"percent inhibition of AR, 187.5 nM","AR mRNA [2]; Table 32, 187.5 nM, HuVEC, electroporation, approximately 16 hours",39%
same,"percent inhibition of AR, 750.0 nM","AR mRNA [2]; Table 32, 750.0 nM, HuVEC, electroporation, approximately 16 hours",70%
same,"percent inhibition of AR, 3000.0 nM","AR mRNA [2]; Table 32, 3000.0 nM, HuVEC, electroporation, approximately 16 hours",86%
same,IC50,"AR mRNA [2]; Table 32, HuVEC, electroporation, approximately 16 hours",300 nM
same,"percent inhibition of AR, 46.9 nM","AR mRNA [2]; Table 33, 46.9 nM, HuVEC, electroporation, approximately 16 hours",14%
same,"percent inhibition of AR, 187.5 nM","AR mRNA [2]; Table 33, 187.5 nM, HuVEC, electroporation, approximately 16 hours",33%
same,"percent inhibition of AR, 750.0 nM","AR mRNA [2]; Table 33, 750.0 nM, HuVEC, electroporation, approximately 16 hours",64%
same,"percent inhibition of AR, 3000.0 nM","AR mRNA [2]; Table 33, 3000.0 nM, HuVEC, electroporation, approximately 16 hours",90%
same,IC50,"AR mRNA [2]; Table 33, HuVEC, electroporation, approximately 16 hours",340 nM
same,"percent inhibition of AR, 46.9 nM","AR mRNA [2]; Table 34, 46.9 nM, HuVEC, electroporation, approximately 16 hours",14%
same,"percent inhibition of AR, 187.5 nM","AR mRNA [2]; Table 34, 187.5 nM, HuVEC, electroporation, approximately 16 hours",36%
same,"percent inhibition of AR, 750.0 nM","AR mRNA [2]; Table 34, 750.0 nM, HuVEC, electroporation, approximately 16 hours",64%
same,"percent inhibition of AR, 3000.0 nM","AR mRNA [2]; Table 34, 3000.0 nM, HuVEC, electroporation, approximately 16 hours",88%
same,IC50,"AR mRNA [2]; Table 34, HuVEC, electroporation, approximately 16 hours",320 nM
same,"percent inhibition of AR, 46.9 nM","AR mRNA [2]; Table 35, 46.9 nM, HuVEC, electroporation, approximately 16 hours",0%
same,"percent inhibition of AR, 187.5 nM","AR mRNA [2]; Table 35, 187.5 nM, HuVEC, electroporation, approximately 16 hours",28%
same,"percent inhibition of AR, 750.0 nM","AR mRNA [2]; Table 35, 750.0 nM, HuVEC, electroporation, approximately 16 hours",64%
same,"percent inhibition of AR, 3000.0 nM","AR mRNA [2]; Table 35, 3000.0 nM, HuVEC, electroporation, approximately 16 hours",88%
same,IC50,"AR mRNA [2]; Table 35, HuVEC, electroporation, approximately 16 hours",420 nM
same,"percent inhibition of AR, 46.9 nM","AR mRNA [2]; Table 36, 46.9 nM, HuVEC, electroporation, approximately 16 hours",2%
same,"percent inhibition of AR, 187.5 nM","AR mRNA [2]; Table 36, 187.5 nM, HuVEC, electroporation, approximately 16 hours",26%
same,"percent inhibition of AR, 750.0 nM","AR mRNA [2]; Table 36, 750.0 nM, HuVEC, electroporation, approximately 16 hours",61%
same,"percent inhibition of AR, 3000.0 nM","AR mRNA [2]; Table 36, 3000.0 nM, HuVEC, electroporation, approximately 16 hours",85%
same,IC50,"AR mRNA [2]; Table 36, HuVEC, electroporation, approximately 16 hours",420 nM
